Source: patent US20240123078A1, “COMPOUNDS AND METHODS FOR MODULATING IMMUNE-RELATED PROTEINS” (Vividion Therapeutics, Inc., priority 2019, published 2024)

Legend:
Assay in all cases: Cysteine reactivity ABPP
Format in all cases: binding
[1] = biological target: T1, PFKFB3 6-phosphofructo-2-kinase/fructose-2,6-bisphosphatase 3 C440 (Q16875) (Homo sapiens, UniProt Q16875); conditions: 100
T1 construct: endogenous in cells; host or cells: primary human T cells
Procedure: (§1) Activated or expanded primary human T cells were re-suspended in RPMI (1×10^6 cells/mL) containing 10% fetal bovine serum (FBS), penicillin (100 U/mL), streptomycin ([…]), and L-glutamine (2 mM). The cells were treated with DMSO or compounds for 3 h, pelleted (524 g, 5 min), washed with PBS, and lysed by sonication (2×8 pulses). Soluble and particulate proteomic fractions were separated by ultracentrifugation (100,000 g, 45 min), and protein concentration was normalized to 1.7 mg/mL using a standard DC protein assay (Bio-Rad). The resulting proteomes were analyzed by competitive isotopic Tandem Orthogonal Proteolysis Activity-Based Protein Profiling (isoTOP-ABPP).
(§2) The heavy/light isoTOP-ABPP ratios (R values) for each unique peptide (DMSO/compound treated) were quantified with in-house CIMAGE software (Weerapana et al., 2010) using default parameters (3 MS1 acquisitions per peak and signal to noise threshold set to 2.5). Site-specific engagement of cysteine residues was assessed by blockade of IA-alkyne probe labeling. […] Ratios for unique peptide sequences were calculated for each experiment; overlapping peptides with the same modified cysteine (e.g., different charge states, elution times or tryptic termini) were grouped together and the median ratio was reported as the final ratio (R). Additionally, ratios for peptide sequences containing multiple cysteines were grouped together. When aggregating data across experimental replicates, the mean of each experimental median R was reported. The peptide ratios reported by CIMAGE were further filtered to ensure the removal or correction of low-quality ratios in each individual dataset. The quality filters applied were the following: removal of half-tryptic peptides, removal of peptides with more than one tryptic miscleaved, removal of peptides with R=20 and only a single MS2 event triggered during the elution of the parent ion, removal of non-unique peptides. Further filtering was then performed as described below for each experiment type.
(§3) Samples (500 μL, 1.7 mg/mL) were treated with iodoacetamide desthiobiotin (IA-DTB, 5 μL of 10 mM stock in DMSO, final concentration: 100 μM) for 1 h at ambient temperature. Ice-cold MeOH (500 μL) and CHCl3 (200 μL) were then added, the mixture was vortexed and centrifuged (10,000 g, 10 min, 4° C.) to afford a protein disc at the interface of CHCl3 and aqueous layers. Both layers were aspirated without perturbing the disk, which was re-suspended in cold methanol (500 μL) and CHCl3 (200 μL) by sonication. The proteins were pelleted (10,000 g, 10 min, 4° C.), and the resulting pellets were re-suspended in a buffer (90 μL) containing 9M urea, 10 mM DTT and 50 mM triethylammonium bicarbonate ( 1/20 dilution of 1.0 M stock solution, pH 8.5) by thorough pipetting up and down. The resulting mixture was heated at 65° C. for 20 min. Sample was cooled to room temp, iodoacetamide (10 μL, 500 mM solution in H2O) was added, and the samples were incubated at 37° C. for 30 min with shaking.
(§4) At individual TMT experiment level, the following filters were applied to remove low-quality peptides: removal of non-unique peptides; removal of half-tryptic peptides; removal of peptides with more than one internal miscleaved site; removal of peptides with low (<10,000) sum of reporter ion intensities for control channels, and peptides with high variation between the replicate control channels (coefficient of variance >0.5). R values (compound-treated vs. DMSO-treated) for each peptide entry were calculated using the reporter ion intensities of DMSO and compound treated TMT channels for each treatment group with a maximum ratio cap of 20. […]

[2] = biological target: T2, STAT3 Signal transducer and activator of transcription 3 C712, C718 (P40763) (Homo sapiens, UniProt P40763)
T2 construct: endogenous in cells; host or cells: primary human T cells
T2 sequence (P40763 whole entry, one chain of several): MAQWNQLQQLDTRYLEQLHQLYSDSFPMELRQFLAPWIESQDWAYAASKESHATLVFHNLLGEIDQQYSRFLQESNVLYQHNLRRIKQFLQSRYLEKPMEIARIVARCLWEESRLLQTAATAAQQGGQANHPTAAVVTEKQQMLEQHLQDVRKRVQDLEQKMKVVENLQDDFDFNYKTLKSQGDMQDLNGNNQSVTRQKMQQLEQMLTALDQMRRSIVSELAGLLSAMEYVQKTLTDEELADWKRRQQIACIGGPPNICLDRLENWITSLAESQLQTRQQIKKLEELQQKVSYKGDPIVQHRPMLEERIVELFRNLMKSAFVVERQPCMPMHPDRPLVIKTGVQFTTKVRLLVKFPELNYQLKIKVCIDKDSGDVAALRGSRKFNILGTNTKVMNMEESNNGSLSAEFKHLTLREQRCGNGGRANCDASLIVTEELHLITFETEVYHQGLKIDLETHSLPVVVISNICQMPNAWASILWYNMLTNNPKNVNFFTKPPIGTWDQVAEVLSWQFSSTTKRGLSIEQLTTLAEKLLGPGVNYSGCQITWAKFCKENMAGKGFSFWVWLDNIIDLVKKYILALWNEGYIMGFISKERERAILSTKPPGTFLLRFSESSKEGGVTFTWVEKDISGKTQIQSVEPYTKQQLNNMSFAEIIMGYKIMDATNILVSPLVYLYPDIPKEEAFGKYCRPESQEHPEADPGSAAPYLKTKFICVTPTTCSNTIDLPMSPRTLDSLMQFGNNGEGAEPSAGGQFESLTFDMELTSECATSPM
Procedure: as §1, §2, §3, §4

[3] = biological target: T3, ATP2A2 Sarcoplasmic/endoplasmic reticulum calcium ATPase 2 C997 (P16615) (Homo sapiens, UniProt P16615)
T3 construct: endogenous in cells; host or cells: primary human T cells
T3 sequence (P16615 whole entry, one chain of several): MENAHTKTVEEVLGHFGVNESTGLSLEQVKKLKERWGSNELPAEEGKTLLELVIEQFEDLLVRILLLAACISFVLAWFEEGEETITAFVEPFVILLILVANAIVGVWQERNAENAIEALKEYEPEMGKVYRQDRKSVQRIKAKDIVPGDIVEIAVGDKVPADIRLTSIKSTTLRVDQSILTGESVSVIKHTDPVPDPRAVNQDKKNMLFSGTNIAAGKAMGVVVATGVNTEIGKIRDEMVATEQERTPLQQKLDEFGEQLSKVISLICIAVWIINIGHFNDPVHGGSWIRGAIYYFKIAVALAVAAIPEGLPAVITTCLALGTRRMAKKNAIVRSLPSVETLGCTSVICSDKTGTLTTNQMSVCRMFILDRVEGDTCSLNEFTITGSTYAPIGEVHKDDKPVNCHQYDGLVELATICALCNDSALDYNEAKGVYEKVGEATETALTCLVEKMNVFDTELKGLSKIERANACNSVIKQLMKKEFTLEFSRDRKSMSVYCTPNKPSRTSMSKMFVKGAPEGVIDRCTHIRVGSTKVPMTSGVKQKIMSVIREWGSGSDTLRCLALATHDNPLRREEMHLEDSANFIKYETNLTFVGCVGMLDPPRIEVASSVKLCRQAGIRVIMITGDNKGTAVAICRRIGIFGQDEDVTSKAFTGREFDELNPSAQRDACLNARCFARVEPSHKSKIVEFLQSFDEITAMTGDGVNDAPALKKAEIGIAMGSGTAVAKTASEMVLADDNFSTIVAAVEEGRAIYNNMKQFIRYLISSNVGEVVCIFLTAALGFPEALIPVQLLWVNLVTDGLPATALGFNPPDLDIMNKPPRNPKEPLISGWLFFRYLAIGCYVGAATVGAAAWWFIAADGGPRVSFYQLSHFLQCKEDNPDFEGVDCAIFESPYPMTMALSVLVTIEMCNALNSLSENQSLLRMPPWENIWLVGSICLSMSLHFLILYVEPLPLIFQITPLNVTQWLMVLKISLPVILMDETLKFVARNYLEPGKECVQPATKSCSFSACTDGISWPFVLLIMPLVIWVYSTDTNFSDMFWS
Procedure: as §1, §2, §3, §4

[4] = biological target: T4, MAPK9 Mitogen-activated protein kinase 9 C177 (P45984) (Homo sapiens, UniProt P45984); conditions: 100
T4 construct: endogenous in cells; host or cells: primary human T cells
T4 sequence (P45984 whole entry): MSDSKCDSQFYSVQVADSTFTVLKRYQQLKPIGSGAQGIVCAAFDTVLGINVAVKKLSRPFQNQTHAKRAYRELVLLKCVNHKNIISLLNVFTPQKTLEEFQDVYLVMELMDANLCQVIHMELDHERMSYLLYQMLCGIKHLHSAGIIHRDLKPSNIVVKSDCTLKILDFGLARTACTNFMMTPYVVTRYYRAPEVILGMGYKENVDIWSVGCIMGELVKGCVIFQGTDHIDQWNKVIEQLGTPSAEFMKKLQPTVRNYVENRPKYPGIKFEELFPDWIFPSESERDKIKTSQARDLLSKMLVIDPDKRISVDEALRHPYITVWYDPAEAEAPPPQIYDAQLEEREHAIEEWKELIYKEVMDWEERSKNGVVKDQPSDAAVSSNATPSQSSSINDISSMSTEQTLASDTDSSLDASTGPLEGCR
Procedure: as §1, §2, §3, §4

[5] = biological target: T5, PDIA3 Protein disulfide-isomerase A3 C57, C60 (P30101) (Homo sapiens, UniProt P30101)
T5 construct: endogenous in cells; host or cells: primary human T cells
T5 sequence (P30101 25-505): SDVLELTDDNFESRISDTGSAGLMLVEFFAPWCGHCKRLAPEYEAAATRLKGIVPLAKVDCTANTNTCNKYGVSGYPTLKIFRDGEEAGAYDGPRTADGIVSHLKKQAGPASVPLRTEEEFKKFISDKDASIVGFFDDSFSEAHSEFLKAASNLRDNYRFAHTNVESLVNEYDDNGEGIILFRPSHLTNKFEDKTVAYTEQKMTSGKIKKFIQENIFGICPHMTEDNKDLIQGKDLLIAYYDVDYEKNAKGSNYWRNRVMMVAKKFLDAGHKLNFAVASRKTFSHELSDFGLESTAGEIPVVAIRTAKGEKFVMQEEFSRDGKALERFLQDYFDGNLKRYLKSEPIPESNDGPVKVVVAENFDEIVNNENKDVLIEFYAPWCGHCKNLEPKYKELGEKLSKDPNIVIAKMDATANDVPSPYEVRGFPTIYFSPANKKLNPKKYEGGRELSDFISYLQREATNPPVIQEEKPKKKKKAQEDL
Procedure: as §1, §2, §3, §4

[6] = biological target: T6, STAT3 Signal transducer and activator of transcription 3 C259 (P40763) (Homo sapiens, UniProt P40763)
T6 construct: endogenous in cells; host or cells: primary human T cells
T6 sequence (P40763 whole entry, one chain of several): as the sequence (P40763 whole entry, one chain of several) above
Procedure: as §1, §2, §3, §4

[7] = biological target: T7, CBLB E3 ubiquitin-protein ligase CBL-B C686 (Q13191) (Homo sapiens, UniProt Q13191)
T7 construct: endogenous in cells; host or cells: primary human T cells
T7 sequence (Q13191 whole entry): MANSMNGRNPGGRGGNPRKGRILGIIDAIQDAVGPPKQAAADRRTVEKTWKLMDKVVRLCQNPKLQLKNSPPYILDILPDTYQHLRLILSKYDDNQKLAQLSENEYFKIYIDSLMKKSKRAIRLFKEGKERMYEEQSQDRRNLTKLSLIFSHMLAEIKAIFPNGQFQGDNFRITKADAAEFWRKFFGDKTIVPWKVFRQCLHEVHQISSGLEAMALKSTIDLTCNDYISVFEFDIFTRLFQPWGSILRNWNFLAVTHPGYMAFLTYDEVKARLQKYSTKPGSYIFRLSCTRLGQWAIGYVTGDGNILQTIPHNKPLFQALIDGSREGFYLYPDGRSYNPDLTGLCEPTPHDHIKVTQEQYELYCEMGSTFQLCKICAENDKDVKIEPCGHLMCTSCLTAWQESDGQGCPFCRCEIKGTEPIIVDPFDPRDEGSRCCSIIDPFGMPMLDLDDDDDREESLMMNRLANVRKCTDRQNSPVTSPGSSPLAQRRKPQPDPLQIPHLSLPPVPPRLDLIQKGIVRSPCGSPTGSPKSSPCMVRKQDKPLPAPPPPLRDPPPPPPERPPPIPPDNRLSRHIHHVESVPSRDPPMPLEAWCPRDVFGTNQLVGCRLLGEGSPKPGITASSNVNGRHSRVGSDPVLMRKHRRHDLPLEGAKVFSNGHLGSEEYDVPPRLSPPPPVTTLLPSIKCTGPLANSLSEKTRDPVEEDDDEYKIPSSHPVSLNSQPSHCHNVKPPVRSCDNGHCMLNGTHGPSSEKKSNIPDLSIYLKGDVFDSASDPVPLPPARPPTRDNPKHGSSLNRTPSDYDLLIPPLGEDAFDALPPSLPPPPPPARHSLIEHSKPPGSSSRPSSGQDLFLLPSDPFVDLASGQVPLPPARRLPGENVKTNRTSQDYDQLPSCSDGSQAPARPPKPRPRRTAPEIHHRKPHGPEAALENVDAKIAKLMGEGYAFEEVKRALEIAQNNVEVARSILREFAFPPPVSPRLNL
Procedure: as §1, §2, §3, §4

[8] = biological target: T8, ACAT1 Acetyl-CoA acetyltransferase, mitochondrial C119 (P24752) (Homo sapiens, UniProt P24752)
T8 construct: endogenous in cells; host or cells: primary human T cells
T8 sequence (P24752 34-427): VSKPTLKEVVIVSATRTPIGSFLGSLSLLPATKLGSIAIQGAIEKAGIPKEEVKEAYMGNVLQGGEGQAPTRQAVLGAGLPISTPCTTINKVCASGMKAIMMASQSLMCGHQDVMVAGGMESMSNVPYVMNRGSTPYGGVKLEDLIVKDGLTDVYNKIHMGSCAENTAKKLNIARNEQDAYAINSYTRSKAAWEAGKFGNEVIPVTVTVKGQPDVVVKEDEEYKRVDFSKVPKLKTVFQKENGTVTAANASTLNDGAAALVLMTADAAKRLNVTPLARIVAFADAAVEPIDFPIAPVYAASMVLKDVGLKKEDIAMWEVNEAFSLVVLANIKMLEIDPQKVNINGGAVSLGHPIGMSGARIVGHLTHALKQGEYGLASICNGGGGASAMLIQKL
Procedure: as §1, §2, §3, §4

T1 sequence (Q16875 whole entry, one chain of several): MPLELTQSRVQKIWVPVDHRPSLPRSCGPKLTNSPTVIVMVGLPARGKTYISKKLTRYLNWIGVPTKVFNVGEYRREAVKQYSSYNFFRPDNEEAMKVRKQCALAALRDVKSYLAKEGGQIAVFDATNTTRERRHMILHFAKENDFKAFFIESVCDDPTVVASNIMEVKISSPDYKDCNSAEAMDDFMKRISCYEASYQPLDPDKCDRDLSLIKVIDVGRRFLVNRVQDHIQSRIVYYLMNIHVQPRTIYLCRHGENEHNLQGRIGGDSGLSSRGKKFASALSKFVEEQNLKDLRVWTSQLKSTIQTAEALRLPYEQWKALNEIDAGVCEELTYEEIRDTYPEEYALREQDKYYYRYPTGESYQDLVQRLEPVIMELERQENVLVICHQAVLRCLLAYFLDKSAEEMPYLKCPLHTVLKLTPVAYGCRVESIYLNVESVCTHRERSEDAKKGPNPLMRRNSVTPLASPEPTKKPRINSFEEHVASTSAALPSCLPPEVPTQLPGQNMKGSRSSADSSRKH

Row | Cysteine reactivity proteomic data [1] | Cysteine reactivity proteomic data ([2]; 100 μM) | Cysteine reactivity proteomic data ([2]; 500 μM) | Cysteine reactivity proteomic data [3]; 100 | Cysteine reactivity proteomic data [4] | Cysteine reactivity proteomic data [5]; 100 | Cysteine reactivity proteomic data ([6]; 100 μM) | Cysteine reactivity proteomic data ([6]; 500 μM) | Cysteine reactivity proteomic data ([7]; 100 μM) | Cysteine reactivity proteomic data ([7]; 500 μM) | Cysteine reactivity proteomic data ([8]; 100 μM) | Cysteine reactivity proteomic data ([8]; 500 μM) | Cysteine reactivity proteomic data ([3]; 500 μM) | Cysteine reactivity proteomic data ([5]; 500 μM) | SMILES
1 | 62.11 | 64.9054 | 69.5373 | 22.19 | 72.19 | 61.24 | 42.3797 | 73.3713 | 25.6002 | 76.6489 | −38.85 | 24.795 | – | – | O=C(CCl)N1CCN(S(=O)(=O)c2ccc(-c3ccncc3)cc2)CC1 [Compound B9]
2 | – | – | 12.6621 | – | – | – | – | 13.6326 | – | 2.418 | – | −0.3282 | 61.48 | 7.07 | C=CC(=O)N(Cc1cccc(Cl)c1Cl)c1ccc(Oc2ccccc2)c(C(F)(F)F)c1 [Compound K4]
